Tests used:
[1] = tested on: C5a induced human PMN chemotaxis; assay: C5a induced chemotaxis of human PMNs (microchamber assay); assay type: cell-based; details: for inhibition at 0.01 µM / inhibition at 0.1 µM: Homo sapiens, read-out: % inhibition C5a induced PMN migration; for inhibition at 0.01 µM: drug concentration: 10^−8 M (footnote b); for inhibition at 0.1 µM: drug concentration: 10^−7 M (footnote a); for inhibitory activity on C5a: compounds lacking the additional hydrogen bond acceptor group
Experimental: The compounds of the invention of formula (I) were evaluated in vitro for their ability to inhibit chemotaxis of polymorphonucleate leukocytes (hereinafter referred to as PMNs) and monocytes induced by the fractions of the complement C5a and C5a-desArg. For this purpose, to isolate the PMNs from heparinized human blood, taken from healthy adult volunteers, mononucleates were removed by means of sedimentation on dextran (according to the procedure disclosed by W. J. Ming et al., J. Immunol., 138, 1469, 1987) and red blood cells by a hypotonic solution. The cell vitality was calculated by exclusion with Trypan blue, whilst the ratio of the circulating polymorphonucleates was estimated on the cytocentrifugate after staining with Diff Quick.
Human recombinant fractions C5a and C5a-desArg (Sigma) were used as stimulating agents in the chemotaxis experiments, giving practically identical results.
The lyophilized C5a was dissolved in a volume of HBSS containing 0.2% bovin serum albumin BSA so thus to obtain a stock solution having a concentration of 10^−5 M to be diluted in HBSS to a concentration of 10^−9 M, for the chemotaxis assays.
In the chemotaxis experiments, the PMNs were incubated with the compounds of the invention of formula (I) for 15′ at 37° C. in an atmosphere containing 5% CO2. The chemotactic activity of the C5a was evaluated on human circulating polymorphonucleates (PMNs) resuspended in HBSS at a concentration of 1.5×10^6 PMNs per mL.
During the chemotaxis assay (according to W. Falket et al., J. Immunol. Methods, 33, 239, 1980) PVP-free filters with a porosity of 5 μm and microchambers suitable for replication were used.
The compounds of the invention in formula (I) were evaluated at a concentration ranging between 10^−7 and 10^−10 M; for this purpose they were added, at the same concentration, both to the lower pores and the upper pores of the microchamber. The wells in the lower part contain the solution of C5a or the simple carrier, those in the upper part contain the suspension of PMNs.
Inhibition of C5a-induced chemotactic activity by the individual compounds of the invention of formula (I) was evaluated by incubating the microchamber for the chemotaxis for 60 min at 37° C. in an atmosphere containing 5% CO2.
By way of example, the inhibition data of the chemotaxis of PMN (concentration range between 10^−7 and 10^−8 M) of some representative compounds of the invention are reported in Table 2.

[2] = tested on: CXCL8 induced human PMN chemotaxis; assay: IL-8 (CXCL8) induced PMN chemotaxis; assay type: cell-based; details: drug concentration 10^−8M, Table 1
[3] = tested on: C5a induced human PMN chemotaxis; assay: C5a induced chemotaxis of human PMNs (microchamber assay); assay type: cell-based; details: for inhibitory activity on C5a induced PMN chemotaxis at high drug concentration: c=10^−6M; for C5a (10^−6M): drug concentration 10^−6M, PMN chemotaxis, Table 1, n.a. = not active
[4] = tested on: C5a induced human PMN chemotaxis; details: previously reported; cited from earlier work

In the case of `C[C@@H](C(=O)Nc1nc(C(F)(F)F)cs1)c1cccc(C(=O)c2ccco2)c1` [Example 28, (R)-2-[3-(furan-2-carbonyl)phenyl]-N-(4-trifluoromethyl-2H-thiazol-2-yl)propionamide], the inhibition at 0.01 µM [1] is reported as 49 ± 9%.
For `C[C@@H](C(N)=O)c1cccc(C(=O)Nc2c(Cl)cccc2Cl)c1` [Example 7, 3-((R)-1-carbamoylethyl)-N-(2,6-dichlorophenyl)benzamide], the inhibition at 0.1 µM [1] was 57 ± 8%.
For `C[C@@H](C(N)=O)c1cccc(S(=O)(=O)c2ccccc2)c1` [Example 17, (R)-2-(3-benzenesulfonylphenyl)propionamide], the inhibition at 0.1 µM [1] was 54 ± 7%.
With `CC(NC(=O)[C@H](C)c1cccc(C(=O)c2ccco2)c1)C(=O)O` (stereo partly drawn) [Example 33, 2-{(R)-2-[3-(furan-2-carbonyl)phenyl]propionylamino}propionic acid] the inhibition at 0.1 µM [1] was 40 ± 5%.
In the case of `C[C@@H](C(N)=O)c1cccc(-c2ncco2)c1` [Example 14], the inhibition at 0.1 µM [1] is reported as 63 ± 9%.
In the case of `CC(C)C(=O)c1cccc([C@@H](C)C(N)=O)c1` [Example 1, (R)-2-[3-(isobutyryl)phenyl]propionamide], the inhibition at 0.1 µM [1] is reported as 50 ± 7%.
Work on `C[C@@H](C(=O)Nc1ccccn1)c1cccc(C(=O)C2CCCC2)c1` [Example 30, (R)-2-(3-cyclopentanecarbonylphenyl)-N-pyrid-2-ylpropionamide] yielded an inhibition at 0.01 µM [1] of 51 ± 5%.
In the case of `C[C@@H](C(=O)NS(C)(=O)=O)c1cccc(C(=O)c2cc3ccccc3o2)c1` [Example 24], the “% inhibition C5a induced PMN migration” value ([1]; drug concentration not marked) is reported as 53 ± 5%.
Molecule `C[C@@H](C(N)=O)c1cccc(C(=O)c2ncco2)c1` [Example 6, (R)-2-[3-(1,3-oxazol-2-ylcarbonyl)phenyl]propionamide] has an inhibition at 0.01 µM [1] of 26 ± 6%.
With `C[C@@H](C(=O)Nc1ccccn1)c1cccc(C(=O)c2ccco2)c1` [Example 26, (R)-2-[3-(furan-2-carbonyl)phenyl]-N-pyrid-2-yl propionamide] the inhibition at 0.01 µM [1] was 45 ± 9%.
Molecule `C[C@@H](C(N)=O)c1cccc(Nc2ccccc2Cl)c1` [Example 11, (R)-2-[3-(2-chlorophenylamino)phenyl]propionamide] has an inhibition at 0.1 µM [1] of 42 ± 5%.
Molecule `C[C@@H](C(N)=O)c1ccc2c(c1)NC(=O)CC2` [Example 16, (R)-2-(oxo-1,2,3,4-tetrahydroquinolin-7-yl)propionamide] has an inhibition at 0.01 µM [1] of 45 ± 10%.
Work on `C[C@@H](C(=O)Nc1nc(C(F)(F)F)cs1)c1cccc(C(=O)c2cc3ccccc3o2)c1` [Example 29, (R)-2-[3-(benzofuran-2-carbonyl)phenyl]-N-(4-trifluoromethyl-2H-thiazol-2-yl)propionamide] yielded an inhibition at 0.1 µM [1] of 40 ± 12%.
Work on `C[C@@H](C(N)=O)c1cccc(C(=O)Nc2ncccc2Cl)c1` [Example 9, 3-((R)-1-carbamoylethyl)-N-(3-chloropyridin-2-yl)benzamide] yielded an inhibition at 0.1 µM [1] of 40 ± 2%.
Molecule `COc1ccccc1Oc1cccc([C@@H](C)C(N)=O)c1` [Example 10, (R)-2-[3-(2-methoxyphenoxy)phenyl]propionamide] has an inhibition at 0.01 µM [1] of 55 ± 6%.
Work on `C[C@@H](C(N)=O)c1cccc(Nc2ccccn2)c1` [Example 13, (R)-2-[3-(pyridin-2-ylamino)phenyl]propionamide] yielded an inhibition at 0.1 µM [1] of 38 ± 3%.
`C[C@@H](C(=O)NS(C)(=O)=O)c1cccc(C(=O)c2ncco2)c1` [Example 25] gave an inhibition at 0.1 µM [1] of 38 ± 8%.
With `C[C@@H](C(=O)NO)c1cccc(C(=O)c2nccs2)c1` [Example 32, (R)-2-[3-(thiazole-2-carbonyl)phenyl]-N-hydroxypropionamide] the inhibition at 0.01 µM [1] was 30 ± 2%.
In the case of `C[C@@H](C(=O)NS(C)(=O)=O)c1cccc(C(=O)c2ccco2)c1` [Example 21], the inhibition at 0.01 µM [1] is reported as 61 ± 15%.
`Cc1ccc(C(=O)c2cccc([C@@H](C)C(=O)NS(C)(=O)=O)c2)o1` [Example 22] gave an inhibition at 0.01 µM [1] of 53 ± 6%.
In the case of `CC(C)c1cccc([C@@H](C)C(N)=O)c1` [(R)-2-(3-isopropylphenyl)propionamide, reference compound], the “IL-8 (10^−8M)” value [2] is reported as 60 ± 5 and the “inhibitory activity on C5a” value [1] is reported as “do not exhibit any inhibitory activity”.
In the case of `CC(C)Cc1ccc([C@@H](C)C(N)=O)cc1` [(R)-2-(4-isobutylphenyl)propionamide, reference compound], the “IL-8 (10^−8M)” value [2] is reported as 57 ± 12 and the “inhibitory activity on C5a” value [1] is reported as “do not exhibit any inhibitory activity”.
With `C[C@@H](C(N)=O)c1cccc(C(=O)c2ccccc2)c1` [(R)-2-(3-benzoylphenyl)propionamide] the “IL-8 (10^−8M)” value [2] was 37 ± 7, the “inhibitory activity on C5a induced PMN chemotaxis at high drug concentration” value [3] was “moderate inhibitory activity” and the “C5a (10^−6M)” value [3] was 30 ± 2. The “activity on the C5a induced PMN chemotaxis” value [4] was “negligible activity”.
Molecule `C[C@@H](C(=O)NCC(=O)O)c1cccc(C(=O)c2ccco2)c1` [Example 34] has an inhibition at 0.1 µM [1] of 51 ± 7%.
`C[C@@H](C(N)=O)c1cccc(C(=O)c2nccs2)c1` [Example 5, (R)-2-[3-(thiazole-2-ylcarbonyl)phenyl]propionamide] showed an inhibition at 0.01 µM [1] of 31 ± 7%.
With `C[C@@H](C(N)=O)c1cccc(C(=O)C2CCCC2)c1` [Example 2, (R)-2-[3-(cyclopentanecarbonyl)phenyl]propionamide] the inhibition at 0.1 µM [1] was 59 ± 16%.
`COc1ccccc1Nc1cccc([C@@H](C)C(N)=O)c1` [Example 12, (R)-2-[3-(2-methoxyphenylamino)phenyl]propionamide] gave an inhibition at 0.1 µM [1] of 60 ± 8%.
For `CC(C(N)=O)c1cccc(NC(=O)c2ccccc2)c1` (stereo not drawn) [Example 19, 2-(3-benzoylamino)phenyl propionamide], the inhibition at 0.1 µM [1] was 34 ± 11%.
In the case of `C[C@@H](C(=O)NO)c1cccc(C(=O)c2ccco2)c1` [Example 31, (R)-2-[3-(furan-2-carbonyl)phenyl]-N-hydroxypropionamide], the inhibition at 0.01 µM [1] is reported as 70 ± 5%.
In the case of `CC(C)Cc1ccc([C@@H](C)C(=O)NS(C)(=O)=O)cc1` [N-[(R)-2-(4-isobutylphenyl)propionyl]methanesulfonamide, reference compound], the “IL-8 (10^−8M)” value [2] is reported as 65 ± 5 and the “inhibitory activity on C5a” value [1] is reported as “do not exhibit any inhibitory activity”.
In the case of `C[C@@H](C(=O)Nc1nccs1)c1cccc(C(=O)c2ccco2)c1` [Example 27, (R)-2-[3-(furan-2-carbonyl)phenyl]-N-(2H-thiazol-2-yl)propionamide], the inhibition at 0.01 µM [1] is reported as 60 ± 5%.
In the case of `C[C@@H](C(=O)NS(C)(=O)=O)c1cccc(C(=O)c2ccccc2)c1` [N-[(R)-2-(3-benzoylphenyl)propionyl]methanesulfonamide], the “IL-8 (10^−8M)” value [2] is reported as 38 ± 5, the “inhibitory activity on C5a induced PMN chemotaxis at high drug concentration” value [3] is reported as “moderate inhibitory activity” and the “C5a (10^−6M)” value [3] is reported as 20 ± 5. For the same molecule, the “activity on the C5a induced PMN chemotaxis” value [4] was “negligible activity”.
`C[C@@H](C(N)=O)c1cccc(C(=O)c2cc3ccccc3o2)c1` [Example 4, (R)-2-[3-(2-benzofuran-2-carbonyl)phenyl]propionamide] gave an inhibition at 0.01 µM [1] of 55 ± 7%.
Work on `C[C@@H](C(=O)NS(C)(=O)=O)c1cccc(C(=O)c2cccs2)c1` [Example 23] yielded an inhibition at 0.1 µM [1] of 37 ± 11%.
In the case of `C[C@@H](C(N)=O)c1cccc(C(=O)c2ccco2)c1` [Example 3], the inhibition at 0.1 µM [1] is reported as 65 ± 6%.
Molecule `C[C@@H](C(N)=O)c1cccc(-c2ccco2)c1` [Example 15] has an inhibition at 0.1 µM [1] of 41 ± 7%.
In the case of `CC(=O)Nc1cccc(C(C)C(N)=O)c1` (stereo not drawn) [Example 18, 2-(3-acetylamino)phenyl propionamide], the inhibition at 0.1 µM [1] is reported as 83 ± 2%.
Work on `C[C@@H](C(=O)NS(C)(=O)=O)c1cccc(C(=O)C2CCCC2)c1` [Example 20, N—[(R)-2-(3-cyclopentanecarbonylphenyl)propionyl]methanesulfonamide] yielded an inhibition at 0.1 µM [1] of 22 ± 2%.
Work on `Cc1cccc(C)c1NC(=O)c1cccc([C@@H](C)C(N)=O)c1` [Example 8, 3-((R)-1-carbamoylethyl)-N-(2,6-dimethylphenyl)benzamide] yielded an inhibition at 0.1 µM [1] of 65 ± 10%.

Source: US7939521B2, “2-arylpropionic acid derivatives and pharmaceutical compositions containing them” (DompePHA.R.MA S.p.A., priority 2004, dated 2011)
